Measurements published in patent US20210220376A1, “ADDICTION TREATMENT OF AN ALCOHOL-CONSUMING PATIENT POPULATION” (Amygdala Neurosciences, Inc., priority 2018, published 2021).

Test system: healthy male alcohol drinkers
Experiment: Phase 1 single-ascending-dose study of compound (2) coadministered with ethanol: safety
Format: in vivo, human
Protocol: This was a single-center, randomized, double-blind, placebo-controlled, single-ascending-dose cohort study to evaluate the safety and tolerability of the coadministration of up to 6 dose levels of compound (2) (25 mg, 50 mg, 100 mg, 200 mg, 400 mg and 600 mg) and EtOH in healthy male alcohol drinkers.
Within 27 days of the medical screening visit, subjects were enrolled and attended an inpatient Qualification Phase in which they received up to 5 standard drinks (14 grams of EtOH each; oral solution of vodka containing 40% [v/v] EtOH, mixed with a non-carbonated beverage, one drink every 30 minutes) to evaluate their tolerance to repeat administration to ensure they could safely tolerate the planned EtOH treatment. A minimum washout interval of 44 hours was performed between initiation of the last EtOH administration in the Qualification Phase and study drug administration in the Treatment Phase.
Following qualification, eligible subjects were enrolled and randomized to receive compound (2) or placebo in a 3:1 fashion in each of 6 cohorts (8 subjects per cohort). As a safety precaution, no more than 4 subjects were administered study drug on any given day. Planned compound (2) dose levels included doses of 25 mg, 50 mg, 100 mg, 200 mg, 400 mg, and 600 mg. Study drug administration occurred approximately 1 hour following ingestion of a standardized (moderate-fat) meal. Approximately 2 hours after receiving the study drug, subjects began a session of repeat EtOH administration, during which they could receive up to 5 doses of EtOH (14 grams each, approximately 1 standard drink) every 30 minutes, or until a stopping criterion applied. Safety assessments, pharmacodynamic assessments and pharmacokinetic blood sample collections were obtained up to 48 hours post-dose. Subjects were discharged after 48-hour post-dose procedures were completed and the investigator deemed it safe to do so. Subjects returned for the safety follow-up visit approximately 7 (±2) days following discharge from the Treatment Phase or after early discontinuation from the study.
The primary endpoints included frequency and severity of adverse events (AEs), ethanol reaction (ER) scores and flushing, laboratory values, vital signs, and electrocardiograms (ECGs).
Subjects' ER scores and flushing were summarized descriptively by timepoint, category and treatment. In addition, flushing, ER heat sensation and ER palpitation were compared between each of the active doses and placebo using a mixed-effect model for repeated measures (MMRM) analysis with treatment, visit, and treatment by visit as fixed effects and baseline as a covariate. The actual value was used as the dependent variable and visit included pre-EtOH, 30 minutes, 60 minutes, 90 minutes, 120 minutes, 150 minutes and 3 hours relative to the first EtOH administration in Treatment Phase. The variance-covariance matrix was assumed to be unstructured. […] Results were presented as least square means (LSMEANS), treatment differences in LSMEANS, 95% confidence intervals (CI) and p-values.
Vital signs measurements (respiratory rate, systolic and diastolic blood pressure, and heart rate) were summarized by treatment and visit. Heart rate and diastolic blood pressure were also compared between each of the active doses and placebo using an MMRM analysis with treatment, visit, and treatment by visit as fixed effects and baseline as a covariate.
Twelve-lead ECG results were summarized by timepoint and treatment, and frequencies (numbers and percentages) were calculated for the overall evaluation. Concomitant medications, clinical laboratory evaluations (raw data and change from baseline, as applicable) and physical examination findings were listed.

[1] = 25 mg, 105 min after first EtOH
[2] = 25 mg, 135 min after first EtOH
[3] = 50 mg, 105 min after first EtOH
[4] = 50 mg, 135 min after first EtOH
[5] = 100 mg, 15 min after first EtOH
[6] = 100 mg, 45 min after first EtOH
[7] = 100 mg, 75 min after first EtOH
[8] = 100 mg, 105 min after first EtOH
[9] = 100 mg, 135 min after first EtOH
[10] = 200 mg, 15 min after first EtOH
[11] = 200 mg, 45 min after first EtOH
[12] = 200 mg, 75 min after first EtOH
[13] = 200 mg, 105 min after first EtOH

Structure (SMILES): O=C(NCc1ccc(-c2ccn(COP(=O)(O)O)c(=O)c2)cc1)c1c(Cl)cccc1Cl [Compound (2), phosphoric acid mono-(4-{4-[(2,6-dichloro-benzoylamino)-methyl]-phenyl}-2-oxo-2H-pyridin-1-ylmethyl) ester]
- flushing (25 mg): not observed
- subjects reporting a TEAE (25 mg): 66.7%
- Diastolic Blood Pressure, Mean (25 mg, 15 min after first EtOH): 76.0 mmHg
- Systolic Blood Pressure, Mean (25 mg, 15 min after first EtOH): 120.3 mmHg
- Diastolic Blood Pressure, Mean (25 mg, 45 min after first EtOH): 75.5 mmHg
- Heart Rate, Mean (25 mg, 45 min after first EtOH): 65.3 beats/min
- Systolic Blood Pressure, Mean (25 mg, 45 min after first EtOH): 120.5 mmHg
- QTcF Interval, Aggregate, Mean (25 mg, 1 hour after initiation of repeat EtOH administration session): 406.7 ms
- Diastolic Blood Pressure, Mean (25 mg, 75 min after first EtOH): 75.8 mmHg
- Heart Rate, Mean (25 mg, 75 min after first EtOH): 63.5 beats/min
- Systolic Blood Pressure, Mean (25 mg, 75 min after first EtOH): 120.7 mmHg
- Diastolic Blood Pressure, Mean [1]: 74.0 mmHg
- Heart Rate, Mean [1]: 66.5 beats/min
- Systolic Blood Pressure, Mean [1]: 118.2 mmHg
- Diastolic Blood Pressure, Mean [2]: 75.0 mmHg
- Heart Rate, Mean [2]: 64.7 beats/min
- Systolic Blood Pressure, Mean [2]: 119.0 mmHg
- Diastolic Blood Pressure, Mean (25 mg, Pre-EtOH): 73.5 mmHg
- Heart Rate, Mean (25 mg, Pre-EtOH): 59.5 beats/min
- Systolic Blood Pressure, Mean (25 mg, Pre-EtOH): 117.2 mmHg
- QTcF Interval, Aggregate, Mean (25 mg, prior to initiation of repeat EtOH administration session): 403.7 ms
- subjects reporting a TEAE (50 mg): 83.3%
- Diastolic Blood Pressure, Mean (50 mg, 15 min after first EtOH): 73.3 mmHg
- Systolic Blood Pressure, Mean (50 mg, 15 min after first EtOH): 116.7 mmHg
- Diastolic Blood Pressure, Mean (50 mg, 45 min after first EtOH): 75.2 mmHg
- Heart Rate, Mean (50 mg, 45 min after first EtOH): 72.7 beats/min
- Systolic Blood Pressure, Mean (50 mg, 45 min after first EtOH): 119.5 mmHg
- QTcF Interval, Aggregate, Mean (50 mg, 1 hour after initiation of repeat EtOH administration session): 402.5 ms
- Diastolic Blood Pressure, Mean (50 mg, 75 min after first EtOH): 73.8 mmHg
- Heart Rate, Mean (50 mg, 75 min after first EtOH): 80.5 beats/min
- Systolic Blood Pressure, Mean (50 mg, 75 min after first EtOH): 117.5 mmHg
- Diastolic Blood Pressure, Mean [3]: 71.8 mmHg
- Heart Rate, Mean [3]: 81.8 beats/min
- Systolic Blood Pressure, Mean [3]: 117.5 mmHg
- Diastolic Blood Pressure, Mean [4]: 78.7 mmHg
- Heart Rate, Mean [4]: 76.8 beats/min
- Systolic Blood Pressure, Mean [4]: 123.7 mmHg
- Diastolic Blood Pressure, Mean (50 mg, Pre-EtOH): 74.5 mmHg
- Heart Rate, Mean (50 mg, Pre-EtOH): 56.7 beats/min
- Systolic Blood Pressure, Mean (50 mg, Pre-EtOH): 115.7 mmHg
- subjects with TEAE of tachyarrhythmia (50 mg, after EtOH): one
- QTcF Interval, Aggregate, Mean (50 mg, prior to initiation of repeat EtOH administration session): 400.7 ms
- subjects reporting a TEAE (100 mg): 100%
- Diastolic Blood Pressure, Mean [5]: 72.0 mmHg
- Systolic Blood Pressure, Mean [5]: 119.2 mmHg
- Diastolic Blood Pressure, Mean [6]: 70.2 mmHg
- Heart Rate, Mean [6]: 70.5 beats/min
- Systolic Blood Pressure, Mean [6]: 120.0 mmHg
- QTcF Interval, Aggregate, Mean (100 mg, 1 hour after initiation of repeat EtOH administration session): 405.3 ms
- Diastolic Blood Pressure, Mean [7]: 70.7 mmHg
- Heart Rate, Mean [7]: 81.8 beats/min
- Systolic Blood Pressure, Mean [7]: 120.2 mmHg
- Diastolic Blood Pressure, Mean [8]: 69.5 mmHg
- Heart Rate, Mean [8]: 83.8 beats/min
- Systolic Blood Pressure, Mean [8]: 125.3 mmHg
- Diastolic Blood Pressure, Mean [9]: 68.2 mmHg
- Heart Rate, Mean [9]: 81.3 beats/min
- Systolic Blood Pressure, Mean [9]: 114.8 mmHg
- Diastolic Blood Pressure, Mean (100 mg, Pre-EtOH): 71.5 mmHg
- Heart Rate, Mean (100 mg, Pre-EtOH): 57.0 beats/min
- Systolic Blood Pressure, Mean (100 mg, Pre-EtOH): 115.7 mmHg
- creatine kinase value of one subject (100 mg, follow-up, abnormal, not clinically significant): 1350 U/L
- severe TEAE (100 mg, one event): 0.6%
- QTcF Interval, Aggregate, Mean (100 mg, prior to initiation of repeat EtOH administration session): 401.3 ms
- creatine kinase value of one subject, repeat (100 mg, repeat 3 days later): 583 U/L
- subjects reporting a TEAE (200 mg): 100%
- Diastolic Blood Pressure, Mean [10]: 76.5 mmHg
- Systolic Blood Pressure, Mean [10]: 121.7 mmHg
- Diastolic Blood Pressure, Mean [11]: 72.5 mmHg
- Heart Rate, Mean [11]: 84.5 beats/min
- Systolic Blood Pressure, Mean [11]: 124.5 mmHg
- QTcF Interval, Aggregate, Mean (200 mg, 1 hour after initiation of repeat EtOH administration session): 403.2 ms
- Diastolic Blood Pressure, Mean [12]: 69.8 mmHg
- Heart Rate, Mean [12]: 97.0 beats/min
- Systolic Blood Pressure, Mean [12]: 125.7 mmHg
- Diastolic Blood Pressure, Mean [13]: 68.0 mmHg
- Heart Rate, Mean [13]: 101.3 beats/min
- Systolic Blood Pressure, Mean [13]: 124.0 mmHg
